Biological target: T1, SLC26A2 (Homo sapiens, UniProt P50443)
T1 construct: full length, N-terminal His-tag and thrombin site (tag digested with thrombin for cryo-EM); Expi293F, BacMam; LMNG; homodimer; model covers residues 52-724
T1 sequence (P50443 1-739): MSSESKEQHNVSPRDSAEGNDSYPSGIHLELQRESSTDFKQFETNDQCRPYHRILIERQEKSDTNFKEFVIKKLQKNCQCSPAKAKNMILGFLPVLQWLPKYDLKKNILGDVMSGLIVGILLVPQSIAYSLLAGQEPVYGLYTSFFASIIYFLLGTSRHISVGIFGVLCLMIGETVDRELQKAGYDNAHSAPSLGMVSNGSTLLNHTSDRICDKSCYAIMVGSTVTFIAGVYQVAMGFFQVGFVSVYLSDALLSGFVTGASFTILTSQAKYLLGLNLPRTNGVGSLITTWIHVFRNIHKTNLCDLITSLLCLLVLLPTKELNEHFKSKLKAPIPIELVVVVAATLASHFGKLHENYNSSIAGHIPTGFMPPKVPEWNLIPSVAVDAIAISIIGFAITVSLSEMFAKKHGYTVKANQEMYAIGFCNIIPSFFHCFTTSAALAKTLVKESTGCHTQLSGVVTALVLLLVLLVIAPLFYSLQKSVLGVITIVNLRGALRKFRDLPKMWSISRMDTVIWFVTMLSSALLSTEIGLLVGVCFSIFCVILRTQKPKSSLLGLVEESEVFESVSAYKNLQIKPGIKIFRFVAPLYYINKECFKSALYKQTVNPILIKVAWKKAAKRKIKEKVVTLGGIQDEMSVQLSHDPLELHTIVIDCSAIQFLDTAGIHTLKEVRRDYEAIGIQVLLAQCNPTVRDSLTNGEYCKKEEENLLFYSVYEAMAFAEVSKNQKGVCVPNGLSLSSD
Experiment: cryo-EM structure of the complex
Assay type: binding
Details: pH 7.5, LMNG

cryo-EM structure of the complex (50 mM K2C2O4, no NaCl, weak density outside the canonical pocket, between TM5 and TM12)	Compound	cryo-EM structure of the complex (150 mM NaCl, canonical TM3/TM10 pocket, inward-facing)
weak densities outside the pocket	O=C(O)C(=O)O [C2O4^2−]	
	Cl [Cl^−]	we identified a distinct density corresponding to the Cl^- ion in this cleft

Source: paper PMC11059360 (Nature Communications, 2024)
